In publication PMC6309430 (Journal of pharmaceutical sciences, 2017) one finds Kd data, which are given here for two compounds.

Structures are written as SMILES. Read-outs that look alike come from different tables or passages of the source.

Experiment [1] addresses T1, P-glycoprotein (Pgp; Abcb1a, MDR3) (Mus musculus, UniProt P21447). The experiment in a line: intrinsic protein. The format is binding.
Experiment [2] addresses T1, P-glycoprotein (Pgp; Abcb1a, MDR3). As to the kind of experiment: intrinsic protein. The format is binding. The source holds these as a separate data set.

T1 sequence (P21447 whole entry): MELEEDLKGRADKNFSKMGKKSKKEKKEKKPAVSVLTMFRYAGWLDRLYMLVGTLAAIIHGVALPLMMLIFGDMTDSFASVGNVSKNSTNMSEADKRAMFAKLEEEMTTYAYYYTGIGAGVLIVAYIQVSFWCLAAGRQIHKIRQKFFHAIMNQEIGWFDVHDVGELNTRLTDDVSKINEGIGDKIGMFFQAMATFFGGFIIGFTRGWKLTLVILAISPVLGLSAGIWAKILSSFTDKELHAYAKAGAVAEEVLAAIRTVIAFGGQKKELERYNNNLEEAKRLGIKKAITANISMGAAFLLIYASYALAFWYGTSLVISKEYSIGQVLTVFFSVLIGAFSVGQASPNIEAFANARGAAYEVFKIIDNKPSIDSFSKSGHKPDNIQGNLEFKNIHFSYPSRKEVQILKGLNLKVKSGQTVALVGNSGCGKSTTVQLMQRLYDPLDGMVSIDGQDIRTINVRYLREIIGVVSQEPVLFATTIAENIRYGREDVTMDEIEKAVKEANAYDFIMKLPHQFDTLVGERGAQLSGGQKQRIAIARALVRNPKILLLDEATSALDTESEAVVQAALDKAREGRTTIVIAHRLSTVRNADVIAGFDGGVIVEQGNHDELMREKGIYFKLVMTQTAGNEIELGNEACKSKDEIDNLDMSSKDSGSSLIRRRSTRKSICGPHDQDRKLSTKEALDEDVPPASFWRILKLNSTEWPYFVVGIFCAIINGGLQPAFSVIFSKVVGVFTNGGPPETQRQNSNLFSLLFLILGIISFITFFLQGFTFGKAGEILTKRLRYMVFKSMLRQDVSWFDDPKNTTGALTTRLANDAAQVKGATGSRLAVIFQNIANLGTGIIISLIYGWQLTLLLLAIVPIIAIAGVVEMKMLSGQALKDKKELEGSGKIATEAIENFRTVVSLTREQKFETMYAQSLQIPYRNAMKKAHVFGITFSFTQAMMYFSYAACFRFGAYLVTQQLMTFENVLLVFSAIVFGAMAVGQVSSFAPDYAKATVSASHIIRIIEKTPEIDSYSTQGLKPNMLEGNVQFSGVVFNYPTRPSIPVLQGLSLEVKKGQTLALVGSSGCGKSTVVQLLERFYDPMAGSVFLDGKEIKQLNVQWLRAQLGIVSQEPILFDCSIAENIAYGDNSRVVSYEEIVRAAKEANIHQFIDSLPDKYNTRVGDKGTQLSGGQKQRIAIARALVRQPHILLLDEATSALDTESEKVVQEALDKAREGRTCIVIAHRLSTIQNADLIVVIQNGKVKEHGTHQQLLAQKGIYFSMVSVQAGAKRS

The Kd is a measure of binding affinity in units of concentration. Turning to `CNS(=O)(=O)Cc1ccc2[nH]cc(CCN(C)C)c2c1` [STT, sumatriptan], binding in experiment [1] was characterised by a dissociation constant (Kd) of 92.6 ± 25 µM. In the case of `CN1CCC[C@@H]1Cc1c[nH]c2ccc(CCS(=O)(=O)c3ccccc3)cc12` [ETT, eletriptan], binding in experiment [2] was characterised by a dissociation constant (Kd) of 115 ± 10 µM.
